Target: unphosphorylated-BTK kinase domain (UP-BTK), GST-tagged human BTK (389-659aa) (Homo sapiens (Human), UniProt Q06187)
Assay: BTK kinase Lanthascreen binding assay
Conditions: Lanthascreen tracer competition, 60 minutes incubation, pIC50 = negative log of the IC50 in molar; for IC50: read-out: BTK_I_binding pIC50 (converted)
Summary of the method: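 A fluorescent tracer is bound to unphosphorylated BTK; test compound is added to compete it off; the Lanthascreen signal is read and IC50 is fitted, then reported as its negative log in molar.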

Sequence of unphosphorylated-BTK kinase domain (UP-BTK), GST-tagged human BTK (389-659aa) (Q06187 389-659): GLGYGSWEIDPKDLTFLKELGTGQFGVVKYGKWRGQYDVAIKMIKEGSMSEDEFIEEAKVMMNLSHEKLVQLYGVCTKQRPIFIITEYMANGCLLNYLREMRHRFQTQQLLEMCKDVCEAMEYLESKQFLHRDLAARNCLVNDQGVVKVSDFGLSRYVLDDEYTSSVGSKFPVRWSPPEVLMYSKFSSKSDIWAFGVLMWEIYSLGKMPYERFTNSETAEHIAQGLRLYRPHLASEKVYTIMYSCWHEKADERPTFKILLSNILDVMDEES

Row | BTK_I_binding pIC50 | IC50 | SMILES
1 | <6 |  | CC(=O)N1CCC[C@@H](NC(=O)c2sc3nccc4c3c2NC(=O)N4c2ccc(Oc3cccnn3)cc2C)C1 [Example 810, (R)—N-(1-Acetylpiperidin-3-yl)-5-(2-methyl-4-(pyridazin-3-yloxy)phenyl)-4-oxo-4,5-dihydro-3H-1-thia-3,5,8-triazaacenaphthylene-2-carboxamide]
2 | <6 |  | CC(=O)N1CCC[C@@H](NC(=O)c2sc3nccc4c3c2NC(=O)N4c2ccc(Oc3cccnn3)cc2)C1 [Example 812, (R)—N-(1-Acetylpiperidin-3-yl)-4-oxo-5-(4-(pyridazin-3-yloxy)phenyl)-4,5-dihydro-3H-1-thia-3,5,8-triazaacenaphthylene-2-carboxamide]
3 |  | 1000 nM | Cc1cc(Oc2ccccc2)ccc1N1C(=O)Nc2c(NC(=O)C3CCCN(C(=O)/C(C#N)=C/C(C)(C)C)C3)sc3nccc1c23 (centres unmarked) [Example 816, (E)-1-(2-Cyano-4,4-dimethylpent-2-enoyl)-N-(5-(2-methyl-4-phenoxyphenyl)-4-oxo-4,5-dihydro-3H-1-thia-3,5,8-triazaacenaphthylen-2-yl)piperidine-3-carboxamide]
4 | 6.0 |  | Cc1cc(Oc2ccccc2)ccc1N1C(=O)Nc2c(NC(=O)C3CCCN(C(=O)CC#N)C3)sc3nccc1c23 (centres unmarked) [Example 817, 1-(2-Cyanoacetyl)-N-(5-(2-methyl-4-phenoxyphenyl)-4-oxo-4,5-dihydro-3H-1-thia-3,5,8-triazaacenaphthylen-2-yl)piperidine-3-carboxamide]
5 | 5.9 |  | CCC(=O)N1CCCC(C(=O)Nc2sc3nccc4c3c2NC(=O)N4c2ccc(Oc3ccccc3)cc2C)C1 (centres unmarked) [Example 818, N-(5-(2-Methyl-4-phenoxyphenyl)-4-oxo-4,5-dihydro-3H-1-thia-3,5,8-triazaacenaphthylen-2-yl)-1-propionylpiperidine-3-carboxamide]
6 | 5.9 |  | Cc1cc(Oc2ccccc2)ccc1N1C(=O)Nc2c(NC(=O)C3CCN(C(=O)CC#N)CC3)sc3nccc1c23 [Example 819, 1-(2-Cyanoacetyl)-N-(5-(2-methyl-4-phenoxyphenyl)-4-oxo-4,5-dihydro-3H-1-thia-3,5,8-triazaacenaphthylen-2-yl)piperidine-4-carboxamide]
7 | 5.9 |  | C=CC(=O)N1CCC(C(=O)Nc2sc3nccc4c3c2NC(=O)N4c2ccc(Oc3ccccc3)cc2C)CC1 [Example 820, 1-Acryloyl-N-(5-(2-methyl-4-phenoxyphenyl)-4-oxo-4,5-dihydro-3H-1-thia-3,5,8-triazaacenaphthylen-2-yl)piperidine-4-carboxamide]
8 | 5.8 |  | CCN1CCCC(C(=O)Nc2sc3nccc4c3c2NC(=O)N4c2ccc(Oc3ccccc3)cc2C)C1 (centres unmarked) [Example 821, 1-Ethyl-N-(5-(2-methyl-4-phenoxyphenyl)-4-oxo-4,5-dihydro-3H-1-thia-3,5,8-triazaacenaphthylen-2-yl)piperidine-3-carboxamide]
9 | 5.8 |  | Cc1cc(Oc2ccccc2)ccc1N1C(=O)Nc2c(NC(=O)C3CCN(C#N)CC3)sc3nccc1c23 [Example 822, 1-Cyano-N-(5-(2-methyl-4-phenoxyphenyl)-4-oxo-4,5-dihydro-3H-1-thia-3,5,8-triazaacenaphthylen-2-yl)piperidine-4-carboxamide]
10 |  | 3160 nM | Cc1cc(Oc2ccccc2)ccc1N1C(=O)Nc2c(NC(=O)C3CCCN(C)C3)sc3nccc1c23 (centres unmarked) [Example 823, 1-Methyl-N-(5-(2-methyl-4-phenoxyphenyl)-4-oxo-4,5-dihydro-3H-1-thia-3,5,8-triazaacenaphthylen-2-yl)piperidine-3-carboxamide]
11 | 8.0 |  | Cc1cc(C(=O)Nc2cc(C(F)(F)F)ccn2)ccc1N1C(=O)Nc2c(C(=O)N[C@@H]3CCCN(C(=O)/C(C#N)=C/C4CC4)C3)sc3nccc1c23 [Example 835, (R,E)-N-(1-(2-Cyano-3-cyclopropylacryloyl)piperidin-3-yl)-5-(2-methyl-4-((4-(trifluoromethyl)pyridin-2-yl)carbamoyl)phenyl)-4-oxo-4,5-dihydro-3H-1-thia-3,5,8-triazaacenaphthylene-2-carboxamide]

Source: patent publication US10800792B2, “Inhibitors of Bruton's tyrosine kinase and method of their use” (JANSSEN PHARMACEUTICA NV, priority 2015, dated 2020)
